{"source": "patent US8293979B2", "about": "“Weed controller metabolism proteins, genes, thereof and use of the same” (Sumitomo Chemical Company, Limited, priority 2001, dated 2012)", "assay_in_all_cases": "Metabolism of compound (II) by a microorganism", "assay_type_in_all_cases": "in vitro ADME", "settings_in_all_cases": "compound (II) at 100 ppm, 7 to 8 days at 30° C.", "key": {"[1]": {"test_system": "Streptomyces chartreusis ATCC21901", "protocol": "(§1) The HPLC for content analysis in Examples 1, 41 and 42 and fraction purification of the compound was conducted under the conditions shown below.\n(§2) The various microorganisms shown in Tables 1 and 2 were grown in ISP2 agar medium (1.0% (w/v) malt extract, 0.4% (w/v) yeast extract, 0.4% (w/v) glucose, 2.0% (w/v) agar, pH 7.3). A “loopful” of the each microorganism was added to TGY medium (0.5% (w/v) tryptone, 0.5% (w/v) yeast extract, 0.1% (w/v) glucose, 0.01% (w/v) KH2PO4, pH 7.0) and incubated with shaking at 30° C. for 2 to 4 days. One-tenth milliliter (0.1 ml) of the obtained culture was incubated with shaking in 3 ml of sporulation medium (0.1% (w/v) of meat extract, 0.2% (w/v) tryptose, 1% glucose, pH 7.1) containing compound (II) at 100 ppm for 7 to 8 days at 30° C. Fifty microliters (50 μl) of 2N HCl was added to the resulting culture and this was extracted with 3 ml of ethyl acetate. The obtained ethyl acetate layer was analyzed on the HPLC. The concentration of compound (II) was reduced (column retention time of 23.9 minutes) and new peaks were detected for compounds at retention times of 21.6 minutes and 22.2 minutes (each referred to as metabolite (I) and metabolite (II))."}, "[2]": {"test_system": "Streptomyces griseochromogenes ATCC14511", "protocol": "as §1, §2"}, "[3]": {"test_system": "Streptomyces hachijoensis IFO12782", "protocol": "as §1, §2"}, "[4]": {"test_system": "Streptomyces phaeochromogenes IFO12898", "protocol": "as §1, §2"}, "[5]": {"test_system": "Saccharopolyspora taberi JCM9383T", "protocol": "as §1, §2"}, "[6]": {"test_system": "Streptomyces achromogenes IFO12735", "protocol": "as §1, §2"}, "[7]": {"test_system": "Streptomyces purpurascens ATCC25489", "protocol": "as §1, §2"}, "[8]": {"test_system": "Streptomyces roseochromogenus ATCC21895", "protocol": "as §1, §2"}, "[9]": {"test_system": "Streptomyces argenteolus var. toyonakensis ATCC21468", "protocol": "as §1, §2"}, "[10]": {"test_system": "Streptomyces testaceus ATCC21469", "protocol": "as §1, §2"}, "[11]": {"test_system": "Streptomyces griseofuscus IFO12870t", "protocol": "as §1, §2"}, "[12]": {"test_system": "Streptomyces griseus ATCC10137", "protocol": "as §1, §2"}, "[13]": {"test_system": "Streptomyces thermocoerulescens IFO14273t", "protocol": "as §1, §2"}, "[14]": {"test_system": "Streptomyces cacaoiasoensis IFO13813", "protocol": "as §1, §2"}, "[15]": {"test_system": "Streptomyces scabies IFO3111", "protocol": "as §1, §2"}, "[16]": {"test_system": "Streptomyces griseus IFO3102", "protocol": "as §1, §2"}, "[17]": {"test_system": "Streptomyces afghaniensis IFO12831", "protocol": "as §1, §2"}, "[18]": {"test_system": "Streptomyces catenulae IFO12848", "protocol": "as §1, §2"}, "[19]": {"test_system": "Streptomyces nogalater IFO13445", "protocol": "as §1, §2"}, "[20]": {"test_system": "Streptomyces kasugaensis IFO13851", "protocol": "as §1, §2"}, "[21]": {"test_system": "Streptomyces ornatus IFO13069t", "protocol": "as §1, §2"}, "[22]": {"test_system": "Streptomyces argenteolus var. toyon ATCC21468t", "protocol": "as §1, §2"}, "[23]": {"test_system": "Streptomyces rimosus ATCC10970", "protocol": "as §1, §2"}, "[24]": {"test_system": "Streptomyces roseochromogenes ATCC13400t", "protocol": "as §1, §2"}, "[25]": {"test_system": "Streptomyces globisporus subsp. globisporus ATCC21903", "protocol": "as §1, §2"}, "[26]": {"test_system": "Streptomyces griseus ATCC11429", "protocol": "as §1, §2"}, "[27]": {"test_system": "Streptomyces roseochromogenes ATCC13400", "protocol": "as §1, §2"}, "[28]": {"test_system": "Streptomyces fimicarius ATCC21900", "protocol": "as §1, §2"}, "[29]": {"test_system": "Streptomyces griseolus ATCC11796", "protocol": "as §1, §2"}, "[30]": {"test_system": "Streptomyces griseus ATCC12475", "protocol": "as §1, §2"}, "[31]": {"test_system": "Streptomyces kasugaensis ATCC15714", "protocol": "as §1, §2"}, "[32]": {"test_system": "Streptomyces sp. SANK62585", "protocol": "as §1, §2"}}}
{"smiles": "C[C@@H](Oc1cc(-n2c(=O)cc(C(F)(F)F)n(C)c2=O)c(F)cc1Cl)C(=O)O", "note": "[compound (II)]", "values": [{"measurement": "concentration of compound (II)", "setting": "[1]", "result": 61.1, "unit": "ppm"}, {"measurement": "concentration of compound (II)", "setting": "[2]", "result": 53.9, "unit": "ppm"}, {"measurement": "concentration of compound (II)", "setting": "[3]", "result": 83.9, "unit": "ppm"}, {"measurement": "concentration of compound (II)", "setting": "[4]", "result": 46.4, "unit": "ppm"}, {"measurement": "concentration of compound (II)", "setting": "[5]", "result": 82.9, "unit": "ppm"}, {"measurement": "concentration of compound (II)", "setting": "[6]", "result": 0.0, "unit": "ppm"}, {"measurement": "concentration of compound (II)", "setting": "[7]", "result": 70.9, "unit": "ppm"}, {"measurement": "concentration of compound (II)", "setting": "[8]", "result": 74.2, "unit": "ppm"}, {"measurement": "concentration of compound (II)", "setting": "[9]", "result": 13.0, "unit": "ppm"}, {"measurement": "concentration of compound (II)", "setting": "[10]", "result": 18.4, "unit": "ppm"}, {"measurement": "concentration of compound (II)", "setting": "[11]", "result": 49.5, "unit": "ppm"}, {"measurement": "concentration of compound (II)", "setting": "[12]", "result": 65.6, "unit": "ppm"}, {"measurement": "concentration of compound (II)", "setting": "[13]", "result": 51.7, "unit": "ppm"}, {"measurement": "concentration of compound (II)", "setting": "[14]", "result": 77.8, "unit": "ppm"}, {"measurement": "concentration of compound (II)", "setting": "[15]", "result": 88.3, "unit": "ppm"}, {"measurement": "concentration of compound (II)", "setting": "[16]", "result": 22.6, "unit": "ppm"}, {"measurement": "concentration of compound (II)", "setting": "[17]", "result": 80.6, "unit": "ppm"}, {"measurement": "concentration of compound (II)", "setting": "[18]", "result": 85.3, "unit": "ppm"}, {"measurement": "concentration of compound (II)", "setting": "[19]", "result": 12.8, "unit": "ppm"}, {"measurement": "concentration of compound (II)", "setting": "[20]", "result": 66.3, "unit": "ppm"}, {"measurement": "concentration of compound (II)", "setting": "[21]", "result": 65.3, "unit": "ppm"}, {"measurement": "concentration of compound (II)", "setting": "[22]", "result": 90.1, "unit": "ppm"}, {"measurement": "concentration of compound (II)", "setting": "[23]", "result": 70.9, "unit": "ppm"}, {"measurement": "concentration of compound (II)", "setting": "[24]", "result": 71.8, "unit": "ppm"}, {"measurement": "concentration of compound (II)", "setting": "[25]", "result": 79.9, "unit": "ppm"}, {"measurement": "concentration of compound (II)", "setting": "[26]", "result": 30.3, "unit": "ppm"}, {"measurement": "concentration of compound (II)", "setting": "[27]", "result": 81.9, "unit": "ppm"}, {"measurement": "concentration of compound (II)", "setting": "[28]", "result": 46.5, "unit": "ppm"}, {"measurement": "concentration of compound (II)", "setting": "[29]", "result": 0, "unit": "ppm"}, {"measurement": "concentration of compound (II)", "setting": "[30]", "result": 51.1, "unit": "ppm"}, {"measurement": "concentration of compound (II)", "setting": "[31]", "result": 92.4, "unit": "ppm"}, {"measurement": "concentration of compound (II)", "setting": "[32]", "result": 54.6, "unit": "ppm"}]}
